Laboratory results taken from PubChem BioAssay (NCI).
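Growth conditions: 96-well plates. Treatment: test compound, 48 hours, 5 concentrations. Analysis: linear interpolation between bracketing concentrations; unreached endpoints set to highest concentration. TGI denotes the concentration required for complete inhibition of growth.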

Experiments:
Assay in all cases: NCI tumour cell line growth inhibition, 48 h
[1] = system: DLD-1 colon
[2] = system: DMS 273 small cell lung
[3] = system: LXFL 529 NSCLC
[4] = system: NCI-H460 lung
[5] = system: KM12 colon
[6] = system: SK-OV-3 ovarian
[7] = system: SF-539 CNS
[8] = system: KM20L2 colon
[9] = system: HCT-15 colon
[10] = system: SF-295 CNS
[11] = system: XF 498 CNS
[12] = system: OVCAR-4 ovarian
[13] = system: EKVX NSCLC
[14] = system: RXF 393 renal
[15] = system: MDA-MB-231 breast
[16] = system: DU-145 prostate

Structure (SMILES)	TGI [1] [µM]	TGI [2] [µM]	TGI [3] [µM]	TGI [4] [µM]	TGI [5] [µM]	TGI [6] [µM]	TGI [7] [µM]	TGI [8] [µM]	TGI [9] [µM]	TGI [10] [µM]	TGI [11] [µM]	TGI [12] [µM]	TGI [13] [µM]	TGI [14] [µM]	TGI [15] [µM]	TGI [16] [µM]
C[N+]1=C(c2cccnc2/C=N/O)OCC1(C)C	> 100	> 100	> 100	> 100	> 100	> 100	> 100	> 100	> 100	> 100	> 100	> 100	> 100	> 100		
O=C(Nc1cccc(C(F)(F)F)c1)C(=O)C(C(=O)c1ccc(Cl)c(Cl)c1)C1OC(=O)c2ccccc21 (stereo not given)	> 100	> 100	> 100	> 100	> 100	> 100		> 100	> 100		> 100	> 100	> 100	41.7		
CCCCn1c(-c2ccccc2)cs/c1=N\N=C1C=C(C(C)(C)C)C(=O)C(C(C)(C)C)=C1		> 100	> 100	> 100			> 100	> 100	> 100	> 100	> 100	> 100	> 100	> 100		
CCOC(=O)/C=C/n1c2ccccc2c(=O)c2cc(OC)ccc21	> 100	> 100	> 100	> 100	> 100	> 100	> 100	> 100	> 100	> 100	> 100	> 100	> 100	> 100		
O=C1NC(=O)C(C(=O)C(=O)Nc2cc(Cl)ccc2Cl)C(=O)N1	> 100		> 100	> 100	> 100	> 100	> 100	> 100	> 100	> 100		> 100	> 100	> 100		
Cc1ccc2nc(N)[nH]c(=O)c2c1Sc1ccncc1	> 100	> 100	> 100	> 100	> 100	> 100	> 100	> 100	> 100	> 100	> 100	> 100	> 100	> 100		
N#C/C(=C\c1ccc(O)c(O)c1)c1c(C#N)c(N)nn1-c1ccccc1	> 100	18.5	92.5	38.3	> 100	36.5	18.9	> 100	36.8	47.7		38.7	69.7			
c1ccc2c(c1)nnn2CNc1ccc(N2CCCCC2)cc1	> 100	> 100	> 100	> 100	> 100	> 100	> 100	> 100	> 100	> 100	> 100	> 100	> 100	> 100		
COc1ccc(CN(CCN(C)C)c2ccccn2)cc1 (tested in a mixture with another compound)	> 100		> 100		> 100	> 100	> 100	> 100	> 100	> 100	> 100					
Nc1cn(C2OC(CC(c3ccccc3)(c3ccccc3)c3ccccc3)C(O)C2O)c(=O)[nH]c1=O (stereo not given)	54.6	> 100	91.8	39.5	> 100	98.2		42.1	33.3	99.7	46.5		> 100	21.4		
NC(CCSCC(F)(F)F)C(=O)O (stereo not given)	> 100	> 100	> 100	> 100	> 100		> 100	> 100	> 100	> 100		> 100	> 100	> 100		
O=[N+]([O-])c1cc(C2(N3CCCCC3)CCCCC2)sc1Br				29.5	20.2	31.2	17.9		17.2	30.1		27.1	24.6	13.2	27.4	10.2
Oc1ccc(-c2c3ccccc3c(-c3ccc(O)cc3)c3ccccc23)cc1	> 100	> 100	> 100	> 100	> 100	> 100	> 100	> 100	> 100	> 100	> 100	> 100	> 100	> 100		
Cc1cccc2c(N)c3cccc(C(=O)NCC[N+](C)(C)Cc4ccc([N+](=O)[O-])n4C)c3nc12				> 46.6	63.4	> 78	52.5		> 78	> 89.3		> 74.7	> 100	> 72.7	> 72.6	> 75.3
CC(=O)C(N1CCCCC1)C(O)(C(F)(F)F)C(F)(F)F (stereo not given)				> 100	> 100	> 100	> 100		> 100	> 100		> 100	> 100	> 100	> 100	> 100
CC(=O)c1ccc(N2C(=O)C3c4[nH]c5ccccc5c4C4CCC(C(C)(C)C)CC4C3C2=O)cc1 (stereo not given)	> 100	33.3	> 100			> 100	46.1	36.4	92.8	88.9		94.8	94.1	32.7		
C[C@@H]1C[C@H]2OC(=O)[C@@]3(C)CCC[C@@](C)([C@@H]23)[C@@]1(O)CCc1ccoc1				> 100	> 100	> 100	> 100		> 100	> 100		> 100	> 100	> 100	> 100	> 100
